Assay results as given in US7375124B2, “Use of α-phenylthiocarboxylic and α-phenyloxycarboxylic acids with serum-glucose-lowering and serum-lipid-lowering activity” (Sigma-Tau Industrie Farmaceutiche Riunite S.p.A., priority 2002, dated 2008).

Experiments:
C57BL/KsJ db/db mouse [1] = conditions: in vivo
Excerpt: (§1) Plasma levels of glucose, insulin, triglycerides, cholesterol, free fatty acids and urea were checked for a well-matched distribution of mice in the treatment groups.
(§2) At the start of treatment the body weights of the mice were checked and arrangements were made for monitoring water and feed consumption.
(§3) In the course of the experiment, serum glucose levels, oral glucose tolerance test (OGTT) findings, a number of lipid status parameters and weight gain were monitored.

C57BL/KsJ db/db mouse [2] = assay: Antidiabetic and serum-lipid-lowering activity in the db/db mouse (Experiments I and II); conditions: Experiment I; for Glucose: blood
Excerpt: as §1, §2, §3

[3] = after 25 days' treatment, postabsorption, 7.5 hours after last treatment
[4] = after 25 days' treatment, postabsorption, 7.5 hours after last treatment, mean ± S.E.

With `COC(=O)C(C)(C)Sc1ccc(OCCc2ccc3ccccc3c2)cc1` [Example 11, methyl 2-[4-[2-(2-naphthyl)ethoxy]phenylthio]isobutyrate] as the compound, how does the melting point read?
The melting point was 56 to 57 °C.

With `COC(=O)C(C)(C)Sc1cccc(OCCn2c3ccccc3c3ccccc32)c1` [Example 6, methyl 2-[3-(2-(carbazol-9-yl)ethoxy)phenylthio]isobutyrate] as the compound, how does the melting point read?
The melting point was 101 to 103 °C.

With `COC(=O)C(C)(C)Sc1ccc(OCCc2ccc(Cl)cc2Cl)cc1` [Example 5, methyl 2-[4-(2-(2,4-dichlorophenyl)ethoxy)phenylthio]isobutyrate] as the compound, how does the melting point read?
Its melting point is 73 to 74 °C.

Which melting point does the source give for `CC(C)(Sc1cccc(OCc2ccc(-c3ccc([N+](=O)[O-])cc3)o2)c1)C(=O)O` [Example 25, 2-methyl-2-[3-[5-(4-nitrophenyl)furfuryloxy]phenylthio]propanoic acid] here?
The melting point was 137 to 138 °C.

For `CC(C)(Sc1ccc(OCCc2ccc3ccccc3c2)cc1)C(=O)O` [Example 19, 2-[4-[2-(2-naphthyl)ethoxy]phenylthio]-2-methylpropanoic acid], which melting point is on record?
The melting point was 103 to 104 °C.

For `COC(=O)C(C)(C)Sc1ccc(OCCn2c3ccccc3c3ccccc32)cc1` [Example 7, methyl 2-[4-(2-(carbazol-9-yl)ethoxy)phenylthio]isobutyrate], which melting point is on record?
The melting point was 72 to 74 °C.

For `CC(C)(Sc1ccc(OCCc2ccc(Cl)cc2)cc1)C(=O)O` [Example 12, 2-[4-[2-(4-chlorophenyl)ethoxy]phenylthio]-2-methylpropanoic acid], which melting point is on record?
The melting point was 87 to 88 °C.

For `COC(=O)C(C)(C)Sc1cccc(OCc2ccc(-c3ccc([N+](=O)[O-])cc3)o2)c1` [Example 22, methyl 2-[3-[5-(4-nitrophenyl)furfuryloxy]phenylthio]isobutyrate], which melting point is on record?
Its melting point is 81 to 82 °C.

Which results are given for `CC(C)(Oc1ccc(CCNC(=O)c2ccc(Cl)cc2)cc1)C(=O)O` [Bezafibrate, bezafibrate, reference compound]?
Final b.w. (C57BL/KsJ db/db mouse [1]): 35.2 ± 1.3 g; Initial b.w. (C57BL/KsJ db/db mouse [1]): 33.7 ± 0.7 g; Variation % (final b.w.) vs control (C57BL/KsJ db/db mouse [1]): +24%; Variation % (initial b.w.) vs control (C57BL/KsJ db/db mouse [1]): +6%; Variation % (glucose) vs control (C57BL/KsJ db/db mouse [2]; after 12 days' treatment, feeding state, approx. 15 hours after last treatment): +3%; Variation % (glucose) vs control (C57BL/KsJ db/db mouse [2]; after 12 days' treatment, postabsorption, 8 hours after last treatment): +2%; Variation % (AUC glucose at OGTT) vs control (C57BL/KsJ db/db mouse [2]; after 18 days' treatment, OGTT glucose 3 g/kg): −13%; AUC glucose at OGTT (C57BL/KsJ db/db mouse [2]; after 18 days' treatment, OGTT glucose 3 g/kg, fasting 18 hours, 5 hours after last treatment, mean ± S.E.): 44476 ± 1827 a.u.; Variation % (glucose) vs control (C57BL/KsJ db/db mouse [2]; after 18 days' treatment, fasting 18 hours, 6 hours after last treatment): −13%; Variation % (HDL-cholesterol) vs control (C57BL/KsJ db/db mouse [2]; after 25 days' treatment): +14%; Variation % (triglycerides) vs control (C57BL/KsJ db/db mouse [2]; after 25 days' treatment): −7%; Glucose (plasma) (C57BL/KsJ db/db mouse [2]; after 25 days' treatment, postabsorption (fasting 9 a.m. to 4.30 p.m.), 7.5 hours after last treatment, mean ± S.E.): 536 ± 22 mg/dL; Variation % (fructosamine) vs control (C57BL/KsJ db/db mouse [2]; [3]): +26%; Variation % (plasma glucose) vs control (C57BL/KsJ db/db mouse [2]; [3]): +18%; Fructosamine (plasma) (C57BL/KsJ db/db mouse [2]; [4]): 1.01 ± 0.04Δ mM; HDL-choles. (plasma) (C57BL/KsJ db/db mouse [2]; [4]): 93.8 ± 3.8 mg/dL; Triglycerides (plasma) (C57BL/KsJ db/db mouse [2]; [4]): 88.3 ± 12.7 mg/dL; Glucose (C57BL/KsJ db/db mouse [2]; after 12 days' treatment, postabsorption (fasting 9 a.m. to 5 p.m.), 8 hours after last treatment, mean ± S.E.): 421 ± 30 mg/dL; Glucose (C57BL/KsJ db/db mouse [2]; after 18 days' treatment, fasting 18 hours, 6 hours after last treatment, mean ± S.E.): 298 ± 21 mg/dL; Glucose (C57BL/KsJ db/db mouse [2]; db/db mice, oral twice daily, after 12 days' treatment, feeding state, approx. 15 hours after last treatment, mean ± S.E.): 503 ± 21 mg/dL
